One test addresses T1, CDK2 (Homo sapiens, UniProt P24941).
T1 construct: endogenous in cells; host or cells: MDA-MB-231
Description: CDK protein degradation activity (Western blotting), CDK2. The format is cell-based. Conditions: MDA-MB-231 cells, 16 hours, Western blot. The essentials: (§1)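 Breast cancer line MDA-MB-231, 16 h compound treatment (100 nM–10 μM final, three doses). Immunoblot quantification of CDK2/CDK9 versus tubulin, normalized to DMSO control.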

For the next test, the target named is T2, CDK9 (Homo sapiens, UniProt P50750).
T2 construct: endogenous in cells; host or cells: MDA-MB-231
T2 sequence (P50750 whole entry): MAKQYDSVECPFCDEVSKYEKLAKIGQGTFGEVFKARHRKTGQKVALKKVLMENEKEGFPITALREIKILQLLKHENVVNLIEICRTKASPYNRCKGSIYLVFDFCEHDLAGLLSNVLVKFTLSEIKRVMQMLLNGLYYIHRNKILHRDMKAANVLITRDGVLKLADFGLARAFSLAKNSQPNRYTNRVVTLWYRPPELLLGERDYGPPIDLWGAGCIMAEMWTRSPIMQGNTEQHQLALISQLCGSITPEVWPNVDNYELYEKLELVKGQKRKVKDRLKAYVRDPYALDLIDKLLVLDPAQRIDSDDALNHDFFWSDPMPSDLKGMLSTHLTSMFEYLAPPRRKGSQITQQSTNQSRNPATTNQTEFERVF
Description: CDK protein degradation activity (Western blotting), CDK9. It is filed as cell-based. As to conditions: MDA-MB-231 cells, 16 hours, Western blot. The essentials:
as §1
For orientation: A western blot detects proteins with antibodies after separation by electrophoresis.

With `O=C1CCN(c2coc3cc(C(=O)N4CCC(CC(=O)N5CCN(c6ccc(Nc7ncnc8c7ncn8[C@H]7C[C@@H](NC(=O)Cc8ccccc8)C7)cc6)CC5)CC4)ccc23)C(=O)N1` [Compound 195, N-((1s,3s)-3-(6-((4-(4-(2-(1-(3-(2,4-dioxotetrahydropyrimidin-1(2H)-yl)benzofuran-6-carbonyl)piperidin-4-yl)acetyl)piperazin-1-yl)phenyl)amino)-9H-purin-9-yl)cyclobutyl)-2-phenylacetamide], at CDK2, the “Enzyme degradation CDK2 (% remaining) @ 0.1 μM” value worked out at 80%, the “Enzyme degradation CDK2 (% remaining) @ 1 μM” value was 50% and the “Enzyme degradation CDK2 (% remaining) @ 10 μM” value is recorded as 50%. In addition, at CDK9, the “Enzyme degradation CDK9 (% remaining) @ 0.1 μM” value was 20%, the “Enzyme degradation CDK9 (% remaining) @ 1 μM” value is given as 10% and the “Enzyme degradation CDK9 (% remaining) @ 10 μM” value was 10%.

Regarding `O=C1CC[C@H](N2C(=O)c3ccc(N4CC(C(=O)N5CCC(CN6CCN(c7ccc(Nc8ncnc9c8ncn9C8CC(NC(=O)c9cccc(Cl)n9)C8)cc7)CC6)CC5)C4)cc3C2=O)C(=O)N1` (stereo partly drawn) [Compound 451, 6-chloro-N-((1s,3s)-3-(6-((4-(4-((1-(1-(2-(2,6-dioxopiperidin-3-yl)-1,3-dioxoisoindolin-5-yl)azetidin-3-carbonyl)piperidin-4-yl)methyl)piperazin-1-yl)phenyl)amino)-9H-purin-9-yl)cyclobutyl)picolinamide], on CDK2, the “Enzyme degradation CDK2 (% remaining) @ 0.1 μM” value was 50%, the “Enzyme degradation CDK2 (% remaining) @ 1 μM” value came out at 30% and the “Enzyme degradation CDK2 (% remaining) @ 10 μM” value is given as 30%. Also, on CDK9, the “Enzyme degradation CDK9 (% remaining) @ 0.1 μM” value was 0/0/0%, the “Enzyme degradation CDK9 (% remaining) @ 1 μM” value is on record as 0/0/0% and the “Enzyme degradation CDK9 (% remaining) @ 10 μM” value was 0/0/0%.

On to `O=C1CC[C@H](N2C(=O)c3cccc(OCC(=O)N4CCC(CC(=O)N5CCN(c6ccc(Nc7ncnc8c7ncn8C7CC(NC(=O)Cc8ccccc8)C7)cc6)CC5)CC4)c3C2=O)C(=O)N1` (stereo partly drawn) [Compound 212, N-((1s,3s)-3-(6-((4-(4-(2-(1-(2-((2-(2,6-dioxopiperidin-3-yl)-1,3-dioxoisoindolin-4-yl)oxy)acetyl)piperidin-4-yl)acetyl)piperazin-1-yl)phenyl)amino)-9H-purin-9-yl)cyclobutyl)-2-phenylacetamide], for which, at CDK2, the “Enzyme degradation CDK2 (% remaining) @ 0.1 μM” value stood at 30%, the “Enzyme degradation CDK2 (% remaining) @ 1 μM” value was 20% and the “Enzyme degradation CDK2 (% remaining) @ 10 μM” value is recorded as 10%. Further, on CDK9, the “Enzyme degradation CDK9 (% remaining) @ 0.1 μM” value was found to be 70%, the “Enzyme degradation CDK9 (% remaining) @ 1 μM” value was determined as 30% and the “Enzyme degradation CDK9 (% remaining) @ 10 μM” value is on record as 20%.

For the molecule `Cc1cccc(C(=O)NC2CC(n3cnc4c(Nc5ccc(N6CCN(CCC7CCN(c8cc9c(cc8F)C(=O)N([C@H]8CCC(=O)NC8=O)C9=O)CC7)CC6)cc5)ncnc43)C2)n1` (stereo partly drawn) [Compound 381, N-((1s,3s)-3-(6-((4-(4-(2-(1-(2-(2,6-dioxopiperidin-3-yl)-6-fluoro-1,3-dioxoisoindolin-5-yl)piperidin-4-yl)ethyl)piperazin-1-yl)phenyl)amino)-9H-purin-9-yl)cyclobutyl)-6-methylpicolinamide], on CDK2, the “Enzyme degradation CDK2 (% remaining) @ 0.1 μM” value is 30%, the “Enzyme degradation CDK2 (% remaining) @ 1 μM” value was 20% and the “Enzyme degradation CDK2 (% remaining) @ 10 μM” value is reported as 20%. Also, on CDK9, the “Enzyme degradation CDK9 (% remaining) @ 0.1 μM” value is recorded as 0/0/0%, the “Enzyme degradation CDK9 (% remaining) @ 1 μM” value was 0/0/0% and the “Enzyme degradation CDK9 (% remaining) @ 10 μM” value was 0/0/0%.
